Legend:
Format in all cases: cell-based, human
MCF-7 cells [1] = assay: Cell cycle analysis by flow cytometry (propidium iodide); conditions: MCF-7, treated at IC50, 48 h
Protocol: VIIb-treated cells were subjected to cell cycle phase distribution analysis as well as apoptosis rates determination by flow cytometric analysis in MCF-7 cells, as reported.
Control and VIIb-treated (IC50 µM, 48 h) MCF-7 cells were harvested and then subjected to cell cycle analysis by flow cytometry.
Cell cycle analysis and apoptosis rates following VIIb treatment were investigated using a Propidium Iodide Flow Cytometry Kit (ab139418; Abcam, Cambridge, UK) and Annexin V-FITC apoptosis kit (Catalog: K101-25; BioVision Research Products, San Francisco, CA, USA), respectively, following the manufacturer’s instructions as stated by a previous study.

Cyclin D1, p-PI3K, p-Akt = assay: Western blot in MCF-7 cells; conditions: MCF-7, IC50, 48 h, vs control untreated cells
Source text: Cyclin D1 activity is essential for the G1 to S phase transition. Moreover, the PI3K/Akt axis is crucial for cell growth and apoptosis. The effects of VIIb on Cyclin D1 and the PI3K/Akt pathway in MCF-7 cells was investigated adopting reported procedures. […] Herein, Western blot results confirmed our previous findings, highlighting the ability of the novel compound, VIIb, to inhibit the PI3K/Akt signaling pathway. […] Cyclin D1 is a proto-oncogene and a major regulator of cell cycle progression. In addition, Cyclin D1 overexpression has been linked to both breast tumorigenesis and tumor progression as well as to the development of endocrine resistance in breast cancer cells.
Whole-cell protein lysates obtained from both control as well as VIIb-treated (IC50 (µM), for 48 h) MCF-7 cells were resolved by SDS-PAGE, and then immunoblotting was conducted with antibodies against cyclin D, p-Akt, and p-PI3K compared to the housekeeping protein β-Actin.
Western blot analysis was conducted using the following primary antibodies: anti-p-Akt (1:5000; ab81283), anti-Cyclin D1 (1:1000; ab226977), anti-p-PI3K (1:1000; ab278545), and anti-beta-actin (1:1000; ab8227). Firstly, VIIb-treated and untreated cells were rinsed with PBS, and then cold lysis buffer was added to induce cell lysis. After centrifugation, the supernatants were collected, and harvested proteins were quantified by Bradford assay and then resolved on SDS-PAGE followed by electroblotting onto polyvinylidene fluoride membranes. Later, membrane blocking was conducted using 5% skimmed milk in 0.1% Tween-20 in PBS (PBST). Then membranes were incubated with the aforementioned primary antibodies at 4 °C. Following 12-h incubation, the membranes were soaked in PBST thrice followed by 1-h incubation with appropriate secondary antibodies. Antibodies were supplied from Abcam (Cambridge, UK). The signals were visualized with a chemiluminescence ECL kit (Perkin Elmer, Waltham, MA, USA) following the manufacturer’s instructions, and images were obtained using a Biorad Imager.

MCF-7 cells [2] = assay: MTT cytotoxicity assay in MCF-7 cells; conditions: Homo sapiens, MCF7, 48 h, means ± sd, n = 3
Protocol: The in vitro anticancer activity of the designed coumarin-thiosemicarbazones and coumarin-thiazolidine-4-one hybrids against MCF-7 cells was tested using the MTT assay, and 5-fluorouracil (5-FU) was used as the reference drug. The tested compounds were used in different concentrations, and cell survival was determined after incubation for 48 h as reported. The cytotoxic activity is represented in Table 1 as IC50 (µM) values.
MCF-7 breast cancer cell line (ATCC® HTB-22™) plus non-tumorigenic epithelial cell line (MCF 10, ATCC® CRL-10317™) were supplied from VACSERA (Cairo, Egypt) and cultured in Dulbecco’s Modified Eagle Medium (Invitrogen-Life Technologies, Carlsbad, CA, USA) with 1% antibiotic solution (streptomycin–penicillin) plus 10% fetal bovine serum (Hyclone) in a 5% (v/v) humidified CO2 incubator at 37 °C.
Firstly, cells were kept in a humidified atmosphere (37 °C, 24 h), and then incubated with serial concentrations of the tested compounds. After 48 h, the medium was aspirated, and then cells were incubated with 5% MTT solution (M-5655; Sigma Aldrich, St. Louis, MO USA) (200 µL/well, 2 h), allowing the dye to metabolize into the colored insoluble formazan complex that was then dissolved in the appropriate solubilization solution (M-8910) (200 µL/well), for 30 min with gentle mixing at room temperature. The UV absorbance was measured using a microplate reader (570 nm), and cell viability was determined with respect to untreated control cells. […] The values were means ± sd; n = 3.

C/C(=N/N=C1/SCC(=O)N1C(=O)c1ccccc1)c1c(O)ccc2c(C)cc(=O)oc12 [VIIb]
DNA Content % Pre G1 (MCF-7 cells [1]; control 1.55): 35.25%
DNA Content % G2/M (MCF-7 cells [1]; control 9.71): 5.59%
DNA Content % S (MCF-7 cells [1]; control 36.58): 46.02%
DNA Content % G0/G1 (MCF-7 cells [1]; control 53.71): 48.39%
level of Cyclin D1 (Cyclin D1, p-PI3K, p-Akt): effectively suppressed
level of p-Akt (Cyclin D1, p-PI3K, p-Akt): effectively suppressed
level of p-PI3K (Cyclin D1, p-PI3K, p-Akt): effectively suppressed
IC50 (MCF-7 cells [2]): 1.03 ± 0.05 µM

Reference: article PMC9027131, “Dual PI3K/Akt Inhibitors Bearing Coumarin-Thiazolidine Pharmacophores as Potential Apoptosis Inducers in MCF-7 Cells” (Pharmaceuticals, 2022)
